Test results reported in US10154974B1, “Use of abscisic acid for the prevention and treatment of malaria” (The Regents of the University of California, priority 2015, dated 2018).
Several values for one entry are separate records, joined by “and”; a condition that tells them apart may be missing. Equal values may be shown once.

How the values were obtained:
ILP3 and ILP4 = assay: Insulin-like peptide mRNA levels in mosquito midgut; type: in vivo, Anopheles stephensi; details: P. falciparum-fed mosquitoes
Protocol: FIG. 14A-B illustrate that ABA reduces insulin-like peptide expression in the midgut. Specifically, mRNA levels are shown of ILP3 (FIG. 14A) and ILP4 (FIG. 14B) in ABA-treated, P. falciparum-fed mosquito midguts. Data are shown as fold change compared to control-treated mosquitoes. Each dot represents one replicate of 10 pooled midguts. Data were analyzed by one sample t-test. * p<0.05.

Anopheles stephensi = assay: Mosquito lifespan with weekly ABA-supplemented bloodmeals; type: in vivo
Protocol: Median survival of control and ABA-treated mosquitoes from five lifespans in which mosquitoes received a weekly control or ABA-supplemented uninfected bloodmeal. Each lifespan was conducted with 300 female mosquitoes per treatment. Data were analyzed by Wilcoxon matched-pairs signed rank test.
FIG. 17A is a survival curve of mosquitoes provided weekly control or ABA-supplemented uninfected bloodmeals and maintained on 3% sucrose solution. FIG. 17B is a survival curve of P. falciparum-infected mosquitoes provided control or ABA-supplemented weekly bloodmeals. Infection status was determined by detection of PfCOX in individual mosquitoes by qRT-PCR. Data were analyzed by log-rank test and Gehan-Breslow-Wilcoxon test.

MAPK (erk, jnk, p38) = assay: MAPK phosphorylation in mosquito midgut; type: in vivo, Anopheles stephensi; details: 0 to 4 hours
P. yoelii 17XNL [1] = assay: P. yoelii transmission from ABA-supplemented mice to A. stephensi (oocyst counts); type: in vivo
Protocol: Anopheles stephensi Liston (Indian wild-type strain) were reared and maintained at 27° C. and 75% humidity. For all feeding experiments, 3-5-day-old female mosquitoes were maintained on water pads for 24 hours and then allowed to bloodfeed for 30 minutes on control or ABA-supplemented P. yoelii 17XNL-infected mice. Cohorts of 50 mosquitoes were allowed to feed on each mouse at 5 days post-infection. Immediately after feeding non-engorged mosquitoes were removed. Ten days post-feeding, midguts were dissected, stained with 0.5% mercurochrome, and oocysts counted by microscopy.

[2] = tested on: parasite-specific IgG and IgG1; assay: Western blot of infected RBC protein probed with mouse plasma; type: in vivo; details: P. yoelii-infected mice
Text: FIG. 26A-C illustrate that ABA-supplementation increased levels of parasite-specific IgG and IgG1 in mouse plasma. Shown are western blots of protein from uninfected and P. yoelii-infected RBCs probed with plasma from uninfected, P. yoelii-infected, ABA-supplemented P. yoelii-infected mice followed by IgG1 (FIG. 26A) and total IgG (FIG. 26B) secondary antibodies. Also shown is a densitometry analysis (FIG. 26C) of IgG1- and total IgG-bound protein from infected RBCs. Data are shown as fold change between control P. yoelii and ABA-supplemented P. yoelii plasma.

P. yoelii 17XNL [3] = assay: P. yoelii 17XNL infection of CD1 mice given ABA in drinking water (parasitemia, gametocytemia); type: in vivo
Protocol: 6-8 week old female CD1 mice (Jackson) were housed four to a cage and provided with unsupplemented water or water supplemented with 2.56 mM (±)-abscisic acid (CAS Registry Number 14375-45-2) obtained from Sigma-Aldrich (Catalog No. A1049). Water and supplemented water were changed daily. […] Mouse weight, water consumption per cage, and parasitemia were monitored daily. Parasitemia was determined from thin blood films stained with Giemsa. Parasitemia was measured as the percentage of infected RBCs divided by total RBCs, while gametocytemia was measured as the proportion of gametocyte-containing RBCs of total infected RBCs. Four mice were used per group in replicated studies. Daily parasitemias and gametocytemias were analyzed by unpaired t-test.

defensin = assay: Defensin mRNA levels in mosquito midgut; type: in vivo, Anopheles stephensi; details: 100 nM ABA, 4 hours post-feeding
Protocol: For mosquito immune gene expression, 20 midguts were dissected from mosquitoes in each treatment group at 1, 2, 4, 6, 8 and 24 hours post-feeding. Midguts were sonicated and stored in Trizol at −20° C. for up to a week before RNA was extracted according to manufacturer's instructions. cDNA synthesis was carried out using QantiTect Reverse Transcription Kit (Qiagen) and 200 ng of cDNA used per reaction for qRT-PCR with Sybr Green (Applied Biosystems). Fold changes in expression levels were calculated using the comparative threshold cycle method. Data were normalized to the housekeeping gene ribosomal protein S7 and to the control treatment. Primers and cycling conditions for AsNOS, defensin, LRIM, TEP1, and APL1 were as previously described (Hauck E S, et al. Microbes Infect. 2013; 15:775-87). […] Samples were analyzed in triplicate with 250 ng of cDNA per reaction to confirm uniformity of amplification. […] All expression data were analyzed by one sample t-test.
Transcript levels of a panel of immune genes previously described to play a role in the mosquito immune response to malaria parasites were examined. […] Mosquitoes were provided with a P. falciparum-infected bloodmeal supplemented with 100 nM ABA or with an equivalent volume of diluent as control, then analyzed at 1-24 hours post feeding.

AMPK = AMPK phosphorylation in mosquito midgut; type: in vivo, Anopheles stephensi; details: midguts of ABA-treated, P. falciparum-fed mosquitoes
Protocol: Fold change is shown in levels of phosphorylated AMPK (FIG. 13A), and gsk3 (FIG. 13B) in the midguts of ABA-treated, P. falciparum-fed mosquitoes compared to controls. Each dot represents one replicate of 15 pooled midguts. Data were analyzed by one sample t-test. * p<0.05.

P. falciparum = assay: Pfs16 and Pfs25 expression in parasite-fed mosquito midguts (parasite death); type: in vivo; details: between 18 and 24 hours post-bloodmeal
Protocol: Expression levels are shown of P. falciparum genes Pfs16 and Pfs25 in ABA-supplemented parasite-fed mosquito midguts. Data are normalized to mosquito and parasite ribosomal genes s7 and A18s. Each dot represents one replicate of 10 pooled midguts. Data are shown as fold change relative to control and were analyzed by one sample t-test. * p<0.05.

[4] = tested on: prospero, escargot, ATG6, ATG8; assay: Expression of midgut epithelial cell turnover genes; type: in vivo, Anopheles stephensi; details: P. falciparum-fed mosquito midguts
Protocol: Data are shown as fold changed compared to control-treated mosquitoes. Each dot represents one replicate of 10 pooled midguts. Data were analyzed by one sample t-test. * p<0.05. nd indicates the prospero was not detectable at 72 or 96 hours.

With `CC1=CC(=O)CC(C)(C)[C@@]1(O)/C=C/C(C)=C\C(=O)O` (racemic) [ABA, (2Z,4E)-5-[(1S)-1-hydroxy-2,6,6-trimethyl-4-oxocyclohex-2-en-1-yl]-3-methylpenta-2,4-dienoic acid] the insulin-like peptide expression (ILP3 and ILP4) was “reduces”, the mosquito lifespan (Anopheles stephensi; P. falciparum-infected mosquitoes) was “does not alter” and the mosquito median survival (Anopheles stephensi; five lifespans, weekly uninfected bloodmeal) was “does not alter”. The “Median Survival” value (Anopheles stephensi; mosquitoes, weekly ABA-supplemented uninfected bloodmeal, replicates 1-5) was 23 days and 16 days (2×) and 21 days and 18 days, the mosquito lifespan (Anopheles stephensi; nutrient stress: maintained on 3% sucrose solution) was “does not alter” and the MAPK phosphorylation (MAPK (erk, jnk, p38)) was “does not alter”. For the same compound, the “mean oocysts per midgut” value (P. yoelii 17XNL [1]; A. stephensi fed on ABA-supplemented mice on day 5) was 12, the “infection prevalence of mosquitoes” value (P. yoelii 17XNL [1]; A. stephensi fed on ABA-supplemented mice on day 5, dissected ten days later) was 60.9% and the reduction in prevalence (P. yoelii 17XNL [1]; vs mosquitoes fed on control mice) was 31.4%. For the same compound, the “levels of parasite-specific IgG and IgG1 in mouse plasma” value [2] was “increased”, the parasitemia (P. yoelii 17XNL [3]; CD1 mice, day 4 to day 7 post-infection, relative to controls (Example 1)) was “reduced” and the gametocytemia (P. yoelii 17XNL [3]; CD1 mice, day 6 of infection (Example 1)) was “reduced”. For the same compound, the gametocytemia (P. yoelii 17XNL [3]; day 5 post-infection (Example 2)) was “reduced”, the parasitemia (P. yoelii 17XNL [3]; starting on day 3 post-infection, compared to controls (Example 2)) was “reduced” and the “defensin mRNA levels” value (defensin) was “increase”. The “phosphorylation of AMPK” value (AMPK) was “alters phosphorylation”, the “parasite death in mosquito midgut (Pfs16 and Pfs25 expression)” value (P. falciparum) was “increased parasite death” and the “expression of genes involved in midgut epithelial cell turnover” value [4] was “reduces expression”.
